Laboratory results from PubChem BioAssay AID248 (DTP/NCI, 2004).
Several values for one entry are separate records, joined by “and”; a condition that tells them apart may be missing. Identical values can stand only once. Toxic doses and inconclusive results are not listed. Cut-off read from the data, not from the text of the source: active = T/C of 150% or more; inactive = T/C below 125%.

Test system: L1210 leukemia ip in BDF1 mice, survival T/C
Assay: NCI In Vivo Anticancer Drug Screen. Data for tumor model L1210 Leukemia (intraperitoneal) in B6D2F1 (BDF1) mice
Settings: endpoint: mean survival time, higher = longer survival
In short: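 Antitumor effect is assessed in tumor-bearing animals. Survival in the compound arm is compared with a vehicle-dosed control arm and expressed as their quotient.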

[1] = dose: 50.0 mg/kg/injection, schedule: Q01DX009 (ip), vehicle: saline with Tween-80
[2] = dose: 100.0 mg/kg/injection, schedule: Q01DX009 (ip), vehicle: saline with Tween-80
[3] = dose: 100.0 mg/kg/injection, schedule: Q04DX003 (ip), vehicle: saline with Tween-80
[4] = dose: 200.0 mg/kg/injection, schedule: Q04DX003 (ip), vehicle: saline with Tween-80
[5] = dose: 400.0 mg/kg/injection, schedule: Q04DX003 (ip), vehicle: saline with Tween-80
[6] = dose: 200.0 mg/kg/injection, schedule: Q01DX009 (ip), vehicle: saline with Tween-80
[7] = dose: 400.0 mg/kg/injection, schedule: Q01DX009 (ip), vehicle: saline with Tween-80
[8] = dose: 100.0 mg/kg/injection, schedule: Q04DX003 (ip), vehicle: Klucel (hydroxypropylcellulose) (HPC)
[9] = dose: 200.0 mg/kg/injection, schedule: Q04DX003 (ip), vehicle: Klucel (hydroxypropylcellulose) (HPC)
[10] = dose: 400.0 mg/kg/injection, schedule: Q04DX003 (ip), vehicle: Klucel (hydroxypropylcellulose) (HPC)
[11] = dose: 50.0 mg/kg/injection, schedule: Q01DX009 (ip), vehicle: saline
[12] = dose: 100.0 mg/kg/injection, schedule: Q01DX009 (ip), vehicle: saline
[13] = dose: 100.0 mg/kg/injection, schedule: Q04DX003 (ip), vehicle: saline
[14] = dose: 200.0 mg/kg/injection, schedule: Q01DX009 (ip), vehicle: saline
[15] = dose: 200.0 mg/kg/injection, schedule: Q04DX003 (ip), vehicle: saline
[16] = dose: 50.0 mg/kg/injection, schedule: Q01DX001 (ip), vehicle: carboxymethylcellulose (CMC)
[17] = dose: 100.0 mg/kg/injection, schedule: Q01DX001 (ip), vehicle: carboxymethylcellulose (CMC)
[18] = dose: 200.0 mg/kg/injection, schedule: Q01DX001 (ip), vehicle: carboxymethylcellulose (CMC)
[19] = dose: 400.0 mg/kg/injection, schedule: Q01DX001 (ip), vehicle: carboxymethylcellulose (CMC)
[20] = dose: 100.0 mg/kg/injection, schedule: Q04DX002 (ip), vehicle: saline with Tween-80
[21] = dose: 200.0 mg/kg/injection, schedule: Q04DX002 (ip), vehicle: saline with Tween-80
[22] = dose: 400.0 mg/kg/injection, schedule: Q04DX002 (ip), vehicle: saline with Tween-80

Measured: T/C

O=c1[nH]c(=O)n(C2CCCCO2)cc1F (stereo not drawn)
inactive: dose: 2.5 mg/kg/injection, schedule: Q01DX009 (ip), vehicle: saline 100 % of control | dose: 5.0 mg/kg/injection, schedule: Q01DX009 (ip), vehicle: saline 104 % of control | dose: 10.0 mg/kg/injection, schedule: Q01DX009 (ip), vehicle: saline 94 % of control | dose: 20.0 mg/kg/injection, schedule: Q01DX009 (ip), vehicle: saline 96 % of control | dose: 40.0 mg/kg/injection, schedule: Q01DX009 (ip), vehicle: saline 100 % of control | dose: 80.0 mg/kg/injection, schedule: Q01DX009 (ip), vehicle: saline 96 % of control | dose: 160.0 mg/kg/injection, schedule: Q01DX009 (ip), vehicle: saline 98 % of control

Cc1cccc(OCCOC(=O)Nc2ccc(C)cc2[N+](=O)[O-])c1
inactive: [1] 97 % of control | [2] 87 % of control | [3] 103 % of control | [4] 94 % of control | [5] 99 % of control

Cc1cc(N)n(C(N)=O)n1
inactive: [2] 102 % of control | [3] 106 % of control | [6] 110 % of control | [4] 107 % of control | [7] 108 % of control | [5] 109 % of control

COc1ccc(C(=Nc2ccc(C)cc2)c2ccccc2)cc1
inactive: dose: 12.0 mg/kg/injection, schedule: Q01DX009 (ip), vehicle: Klucel (hydroxypropylcellulose) (HPC) 105 % of control | dose: 12.5 mg/kg/injection, schedule: Q01DX009 (ip), vehicle: Klucel (hydroxypropylcellulose) (HPC) 102 % of control | dose: 25.0 mg/kg/injection, schedule: Q01DX009 (ip), vehicle: Klucel (hydroxypropylcellulose) (HPC) 105 % of control | dose: 50.0 mg/kg/injection, schedule: Q01DX009 (ip), vehicle: Klucel (hydroxypropylcellulose) (HPC) 97 % of control and 113 % of control | dose: 100.0 mg/kg/injection, schedule: Q01DX009 (ip), vehicle: Klucel (hydroxypropylcellulose) (HPC) 122 % of control | [8] 101 % of control | dose: 200.0 mg/kg/injection, schedule: Q01DX009 (ip), vehicle: Klucel (hydroxypropylcellulose) (HPC) 107 % of control | [9] 98 % of control | dose: 400.0 mg/kg/injection, schedule: Q01DX009 (ip), vehicle: Klucel (hydroxypropylcellulose) (HPC) 107 % of control | [10] 98 % of control

CCN(C)CCC(CNC(=O)CN(CC)CC)(c1cccc2ccccc12)C(C)C (stereo not drawn)
inactive: [11] 94 % of control | [12] 91 % of control | [13] 103 % of control | [14] 101 % of control | [15] 103 % of control

COc1ccc(/C(C#N)=C2C=C/C(=N\O)C(C)=C/2Cl)cc1
inactive: [16] 109 % of control | [17] 96 % of control | [3] 92 % of control | [18] 93 % of control | [4] 106 % of control | [19] 91 % of control | [5] 97 % of control

C/C(=N/N)c1ccc(Br)cc1
inactive: dose: 3.7 mg/kg/injection, schedule: Q01DX009 (ip), vehicle: saline 107 % of control | dose: 5.0 mg/kg/injection, schedule: Q01DX001 (ip), vehicle: saline 94 % of control | dose: 7.5 mg/kg/injection, schedule: Q01DX009 (ip), vehicle: saline 119 % of control | dose: 10.0 mg/kg/injection, schedule: Q01DX001 (ip), vehicle: saline 97 % of control | dose: 20.0 mg/kg/injection, schedule: Q01DX001 (ip), vehicle: saline 113 % of control | dose: 25.0 mg/kg/injection, schedule: Q04DX003 (ip), vehicle: saline with Tween-80 105 % of control | dose: 40.0 mg/kg/injection, schedule: Q01DX001 (ip), vehicle: saline 122 % of control | dose: 50.0 mg/kg/injection, schedule: Q04DX003 (ip), vehicle: saline with Tween-80 110 % of control | dose: 80.0 mg/kg/injection, schedule: Q01DX001 (ip), vehicle: saline 105 % of control | [3] 93 % of control

Clc1ccc(OCc2sc3ccc(Br)cc3c2CN2CCOCC2)cc1
inactive: dose: 75.0 mg/kg/injection, schedule: Q01DX009 (ip), vehicle: Klucel (hydroxypropylcellulose) (HPC) 100 % of control | [8] 94 % of control | dose: 150.0 mg/kg/injection, schedule: Q01DX009 (ip), vehicle: Klucel (hydroxypropylcellulose) (HPC) 105 % of control | [9] 96 % of control | dose: 300.0 mg/kg/injection, schedule: Q01DX009 (ip), vehicle: Klucel (hydroxypropylcellulose) (HPC) 95 % of control | [10] 89 % of control

CN(Cc1ccccc1)C(=O)NC1CCCCC1
inactive: dose: 25.0 mg/kg/injection, schedule: Q01DX009 (ip), vehicle: saline 100 % of control and 101 % of control | [11] 100 % of control and 101 % of control | [2] 102 % of control | [12] 97 % of control and 100 % of control | [20] 94 % of control and 96 % of control | [3] 101 % of control | [6] 94 % of control and 105 % of control | [14] 96 % of control and 97 % of control | [21] 96 % of control and 100 % of control | [4] 102 % of control | [7] 95 % of control and 105 % of control | [22] 100 % of control and 92 % of control | [5] 95 % of control

[O]=[Hf]=[O]
inactive: [13] 96 % of control | [15] 92 % of control | dose: 400.0 mg/kg/injection, schedule: Q04DX003 (ip), vehicle: saline 97 % of control

N#CCC(=O)N1CCCCC1
inactive: [16] 93 % of control | [17] 93 % of control | [18] 114 % of control | [19] 95 % of control

CNC(=O)Nc1ncnn1Cc1ccccc1
inactive: [12] 92 % of control | [14] 97 % of control

O=C(Nc1ccc([N+](=O)[O-])cc1Cl)Oc1ccc(F)cc1
inactive: [8] 95 % of control | [9] 96 % of control | [10] 100 % of control

N/N=C1\c2ccccc2-c2ccc([N+](=O)[O-])cc21
inactive: [17] 95 % of control | [18] 93 % of control | [19] 95 % of control

Cc1ccc(NC(=O)N(C)CCC#N)cc1
inactive: [20] 97 % of control | [21] 94 % of control | [22] 87 % of control

CCCCn1c(O)c(C=N)c(=O)n(CCCC)c1=O
inactive: dose: 25.0 mg/kg/injection, schedule: Q01DX009 (ip), vehicle: saline with Tween-80 101 % of control | [1] 90 % of control | [2] 101 % of control and 86 % of control | [3] 89 % of control | [4] 94 % of control | [5] 89 % of control
